#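 Method: 48-hour compound exposure of cells in 96-well plates, five concentrations, linear interpolation of endpoints. GI50 = concentration required for 50% inhibition of growth. TGI: concentration producing complete growth inhibition.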
# Columns and labels:
# Test in all cases: inhibition of tumour cell growth, NCI panel, 48 h
# KM12 colon = tested on: KM12 colon
# UO-31 renal = tested on: UO-31 renal
# COLO 205 colon = tested on: COLO 205 colon
# MDA-MB-231 breast = tested on: MDA-MB-231 breast
# SF-295 CNS = tested on: SF-295 CNS
# HCT-15 colon = tested on: HCT-15 colon
# DU-145 prostate = tested on: DU-145 prostate
# NCI-H522 lung = tested on: NCI-H522 lung
# OVCAR-4 ovarian = tested on: OVCAR-4 ovarian
# OVCAR-8 ovarian = tested on: OVCAR-8 ovarian
# A549 NSCLC = tested on: A549 NSCLC
# UACC-257 melanoma = tested on: UACC-257 melanoma
# SK-MEL-28 melanoma = tested on: SK-MEL-28 melanoma
# SK-MEL-2 melanoma = tested on: SK-MEL-2 melanoma
# OVCAR-3 ovarian = tested on: OVCAR-3 ovarian
# CCRF-CEM leukemia = tested on: CCRF-CEM leukemia
# SK-MEL-5 melanoma = tested on: SK-MEL-5 melanoma
# NCI-H460 lung = tested on: NCI-H460 lung
# U251 CNS = tested on: U251 CNS
# 786-0 renal = tested on: 786-0 renal
# SF-539 CNS = tested on: SF-539 CNS
# HCC-2998 colon = tested on: HCC-2998 colon
# HL-60(TB) leukemia = tested on: HL-60(TB) leukemia
# HOP-62 NSCLC = tested on: HOP-62 NSCLC
# A498 renal = tested on: A498 renal
# SN12C renal = tested on: SN12C renal
# NCI-H226 lung = tested on: NCI-H226 lung
# LOX IMVI melanoma = tested on: LOX IMVI melanoma
# T-47D breast = tested on: T-47D breast
# SR leukemia = tested on: SR leukemia
# MOLT-4 leukemia = tested on: MOLT-4 leukemia
# ACHN renal = tested on: ACHN renal
# HS 578T breast = tested on: HS 578T breast
# CAKI-1 renal = tested on: CAKI-1 renal
# HOP-92 NSCLC = tested on: HOP-92 NSCLC
# SK-OV-3 ovarian = tested on: SK-OV-3 ovarian
# TK-10 renal = tested on: TK-10 renal
# RPMI-8226 leukemia = tested on: RPMI-8226 leukemia
# HCT-116 colon = tested on: HCT-116 colon
# SNB-75 CNS = tested on: SNB-75 CNS
# IGROV1 ovarian = tested on: IGROV1 ovarian
# RXF 393 renal = tested on: RXF 393 renal
# SW-620 colon = tested on: SW-620 colon
# HT29 colon = tested on: HT29 colon
# NCI/ADR-RES ovarian = tested on: NCI/ADR-RES ovarian
# SNB-19 CNS = tested on: SNB-19 CNS
# M14 melanoma = tested on: M14 melanoma
# MCF7 breast = tested on: MCF7 breast
# NCI-H23 lung = tested on: NCI-H23 lung
# K-562 leukemia = tested on: K-562 leukemia
# MDA-MB-435 = tested on: MDA-MB-435
# MALME-3M melanoma = tested on: MALME-3M melanoma
# BT-549 breast = tested on: BT-549 breast
# SF-268 CNS = tested on: SF-268 CNS
# EKVX NSCLC = tested on: EKVX NSCLC
# OVCAR-5 ovarian = tested on: OVCAR-5 ovarian
# PC-3 prostate = tested on: PC-3 prostate
smiles,measurement,setting,value
COc1ccc(N2CCN(CC(=O)N3CCN(c4nnc(-c5ccccc5)c(-c5ccccc5)n4)CC3)CC2)cc1,GI50,KM12 colon,5.67 µM
same,TGI,KM12 colon,> 100 µM
same,GI50,UO-31 renal,3.94 µM
same,TGI,UO-31 renal,> 90.6 µM
same,GI50,COLO 205 colon,3.25 µM
same,TGI,COLO 205 colon,13.7 µM
same,GI50,MDA-MB-231 breast,65.3 µM
same,TGI,MDA-MB-231 breast,> 100 µM
same,GI50,SF-295 CNS,4.15 µM
same,TGI,SF-295 CNS,> 100 µM
same,GI50,HCT-15 colon,6.07 µM
same,TGI,HCT-15 colon,> 100 µM
same,GI50,DU-145 prostate,16.2 µM
same,TGI,DU-145 prostate,> 100 µM
same,GI50,NCI-H522 lung,19.1 µM
same,TGI,NCI-H522 lung,> 73.2 µM
same,GI50,OVCAR-4 ovarian,3.61 µM
same,TGI,OVCAR-4 ovarian,> 100 µM
same,GI50,OVCAR-8 ovarian,35.8 µM
same,TGI,OVCAR-8 ovarian,> 100 µM
same,GI50,A549 NSCLC,16.2 µM
same,TGI,A549 NSCLC,> 100 µM
same,GI50,UACC-257 melanoma,27.1 µM
same,TGI,UACC-257 melanoma,> 90.6 µM
same,GI50,SK-MEL-28 melanoma,11.9 µM
same,TGI,SK-MEL-28 melanoma,> 100 µM
same,GI50,SK-MEL-2 melanoma,51.3 µM
same,TGI,SK-MEL-2 melanoma,> 100 µM
same,GI50,OVCAR-3 ovarian,4.92 µM
same,TGI,OVCAR-3 ovarian,> 93.4 µM
same,GI50,CCRF-CEM leukemia,6.61 µM
same,TGI,CCRF-CEM leukemia,> 100 µM
same,GI50,SK-MEL-5 melanoma,2.32 µM
same,TGI,SK-MEL-5 melanoma,6.63 µM
same,GI50,NCI-H460 lung,5.96 µM
same,TGI,NCI-H460 lung,> 100 µM
same,GI50,U251 CNS,6.43 µM
same,TGI,U251 CNS,> 100 µM
same,GI50,786-0 renal,4.91 µM
same,TGI,786-0 renal,> 100 µM
same,GI50,SF-539 CNS,7.71 µM
same,TGI,SF-539 CNS,> 81.9 µM
same,GI50,HCC-2998 colon,9.73 µM
same,TGI,HCC-2998 colon,> 100 µM
same,GI50,HL-60(TB) leukemia,6.03 µM
same,TGI,HL-60(TB) leukemia,> 43.2 µM
same,GI50,HOP-62 NSCLC,> 67.4 µM
same,TGI,HOP-62 NSCLC,> 100 µM
same,GI50,A498 renal,3.35 µM
same,TGI,A498 renal,85.6 µM
same,GI50,SN12C renal,8.64 µM
same,TGI,SN12C renal,> 100 µM
same,GI50,NCI-H226 lung,> 100 µM
same,TGI,NCI-H226 lung,> 100 µM
same,GI50,LOX IMVI melanoma,11.6 µM
same,TGI,LOX IMVI melanoma,> 100 µM
same,GI50,T-47D breast,2.56 µM
same,TGI,T-47D breast,18.5 µM
same,GI50,SR leukemia,2.41 µM
same,TGI,SR leukemia,6.97 µM
same,GI50,MOLT-4 leukemia,4.79 µM
same,TGI,MOLT-4 leukemia,> 71 µM
same,GI50,ACHN renal,7.94 µM
same,TGI,ACHN renal,> 100 µM
same,GI50,HS 578T breast,9.46 µM
same,TGI,HS 578T breast,> 100 µM
same,GI50,CAKI-1 renal,11.6 µM
same,TGI,CAKI-1 renal,> 100 µM
same,GI50,HOP-92 NSCLC,7.13 µM
same,TGI,HOP-92 NSCLC,> 94.4 µM
same,GI50,SK-OV-3 ovarian,> 27.9 µM
same,TGI,SK-OV-3 ovarian,> 100 µM
same,GI50,TK-10 renal,9.39 µM
same,TGI,TK-10 renal,> 100 µM
same,GI50,RPMI-8226 leukemia,3.98 µM
same,TGI,RPMI-8226 leukemia,31.1 µM
same,GI50,HCT-116 colon,3.96 µM
same,TGI,HCT-116 colon,38.6 µM
same,GI50,SNB-75 CNS,7.63 µM
same,TGI,SNB-75 CNS,> 100 µM
same,GI50,IGROV1 ovarian,43.2 µM
same,TGI,IGROV1 ovarian,> 100 µM
same,GI50,RXF 393 renal,7.88 µM
same,TGI,RXF 393 renal,> 61.2 µM
same,GI50,SW-620 colon,10.4 µM
same,TGI,SW-620 colon,> 100 µM
same,GI50,HT29 colon,3.19 µM
same,TGI,HT29 colon,11.3 µM
same,GI50,NCI/ADR-RES ovarian,8.68 µM
same,TGI,NCI/ADR-RES ovarian,> 100 µM
same,GI50,SNB-19 CNS,> 33.6 µM
same,TGI,SNB-19 CNS,> 100 µM
same,GI50,M14 melanoma,17 µM
same,TGI,M14 melanoma,> 100 µM
same,GI50,MCF7 breast,4.44 µM
same,TGI,MCF7 breast,34.2 µM
same,GI50,NCI-H23 lung,6.06 µM
same,TGI,NCI-H23 lung,> 100 µM
same,GI50,K-562 leukemia,5.6 µM
same,TGI,K-562 leukemia,> 100 µM
same,GI50,MDA-MB-435,5.48 µM
same,TGI,MDA-MB-435,> 100 µM
same,GI50,MALME-3M melanoma,6.82 µM
same,TGI,MALME-3M melanoma,> 100 µM
same,GI50,BT-549 breast,3.47 µM
same,TGI,BT-549 breast,33 µM
same,GI50,SF-268 CNS,9.16 µM
same,TGI,SF-268 CNS,> 100 µM
same,GI50,EKVX NSCLC,4.47 µM
same,TGI,EKVX NSCLC,> 100 µM
same,GI50,OVCAR-5 ovarian,> 100 µM
same,TGI,OVCAR-5 ovarian,> 100 µM
same,GI50,PC-3 prostate,5.5 µM
same,TGI,PC-3 prostate,> 100 µM

# Reference: PubChem BioAssay (NCI)
